Ten compounds from PubChem BioAssay (NCI) can be followed below.

Test systems include A498 renal; CAKI-1 renal; CCRF-CEM leukemia; HCT-116 colon; M14 melanoma; NCI-H460 lung; OVCAR-5 ovarian; SF-295 CNS; SF-539 CNS; UO-31 renal.
Common to all, as to test: DTP human tumour cell line panel, 48 h

Each structure is given as a SMILES string.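 Following 48 hours of exposure in 96-well plates, responses at five concentrations were used to interpolate endpoints linearly. GI50: concentration for 50% inhibition of growth. TGI denotes the concentration required for complete inhibition of growth.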

As usually defined, the GI50 is the concentration at which growth is held to half of that of the control. One may read the TGI as the concentration at which net growth stops.

In the case of `CC1=C(C#N)C23C(=O)N(c4ccccc4)C(=O)C2=C(O)C=CC3(O)N1Cc1ccc(Cl)cc1Cl` (centres undefined), the GI50 is 5.79 µM in the assay with A498 renal; 2.94 µM in the assay with CAKI-1 renal; 1.59 µM with CCRF-CEM leukemia; 1.73 µM with HCT-116 colon; 3.43 µM with M14 melanoma; 3.09 µM with NCI-H460 lung. For the same compound, the GI50 in the assay with OVCAR-5 ovarian was 5 µM; in the assay on SF-295 CNS, 1.32 µM; with SF-539 CNS it was 2.11 µM; in the assay on UO-31 renal, 5.42 µM. Moreover, the TGI with A498 renal came out at 18.1 µM; with CAKI-1 renal, 12.1 µM; with CCRF-CEM leukemia it was 4.28 µM; in the assay with HCT-116 colon, 3.45 µM; with M14 melanoma, 16.1 µM; in the assay with NCI-H460 lung, 12.3 µM. In addition, the TGI with OVCAR-5 ovarian was found to be 23.4 µM; with SF-295 CNS, 5.64 µM; in the assay on SF-539 CNS, 4.9 µM; with UO-31 renal it was 19.6 µM.
For `Cc1ccc(OCC2CO2)c(Br)c1` (centres undefined), the concentration for total growth inhibition (TGI) in the assay on A498 renal is above 100 µM; in the assay on CAKI-1 renal, above 100 µM; in the assay with CCRF-CEM leukemia, above 100 µM; in the assay on HCT-116 colon, 73.3 µM; with M14 melanoma, 95.9 µM; with NCI-H460 lung, 66 µM. Besides, the concentration for total growth inhibition (TGI) in the assay with OVCAR-5 ovarian is 34.6 µM; in the assay on SF-295 CNS, 63.7 µM; in the assay on SF-539 CNS, 29.9 µM; in the assay on UO-31 renal it was 39.1 µM.
Regarding `CCC(CC)n1cnc2c(-c3cnc(N)cn3)nc(N3CC4CCC(C3)O4)nc21`, the GI50 is 0.0749 µM in the assay with A498 renal; 0.108 µM in the assay with CAKI-1 renal; 0.443 µM with CCRF-CEM leukemia; 0.63 µM in the assay with HCT-116 colon; 0.151 µM in the assay with M14 melanoma; 0.17 µM with NCI-H460 lung. Moreover, the GI50 was 0.374 µM in the assay with OVCAR-5 ovarian, 0.173 µM in the assay with SF-295 CNS, 0.51 µM with SF-539 CNS and 0.0961 µM in the assay on UO-31 renal. Also, the TGI is 0.466 µM with A498 renal; 1.73 µM in the assay on CAKI-1 renal; above 100 µM in the assay on CCRF-CEM leukemia; above 100 µM in the assay with HCT-116 colon; above 100 µM in the assay with M14 melanoma; above 100 µM with NCI-H460 lung. In addition, the TGI was above 100 µM in the assay with OVCAR-5 ovarian, 1.59 µM in the assay on SF-295 CNS and 4.19 µM in the assay on SF-539 CNS.
As to `O=C(c1c(F)c(F)c(F)c(F)c1F)c1c(F)c(F)c(F)c(F)c1F`, the TGI was 9.16 µM with A498 renal; 1.69 µM with CAKI-1 renal; 1.15 µM in the assay on CCRF-CEM leukemia; 2.96 µM in the assay on HCT-116 colon; 5.97 µM with M14 melanoma; 5.24 µM in the assay on NCI-H460 lung. The TGI came out at 3.65 µM in the assay with OVCAR-5 ovarian, 6.44 µM in the assay with SF-295 CNS, 2.69 µM with SF-539 CNS and 2.64 µM in the assay on UO-31 renal.
Consider `CCOC(=O)c1[nH]c2cc(Cl)ccc2c1[C@@H](C(=O)NC(C)(C)C)N(CC)C(=O)CCCCC#Cc1cccc2c1CN(C1CCC(=O)NC1=O)C2=O` (some centres undefined), for which the GI50 was below 0.0104 µM with A498 renal; 0.0355 µM in the assay with CAKI-1 renal; below 0.01 µM with CCRF-CEM leukemia; 2.55 µM in the assay with HCT-116 colon; 0.213 µM in the assay with M14 melanoma; 3.11 µM with NCI-H460 lung. The GI50 with OVCAR-5 ovarian is 2.08 µM; in the assay with SF-295 CNS it was 1.14 µM; in the assay with SF-539 CNS, 1.74 µM; in the assay with UO-31 renal, 0.0425 µM. Besides, the TGI with A498 renal is 0.0723 µM; in the assay with CAKI-1 renal, 8.62 µM; in the assay on CCRF-CEM leukemia it was above 100 µM; with HCT-116 colon, 18.5 µM; with M14 melanoma, 17.7 µM; with NCI-H460 lung, above 54.3 µM. The TGI in the assay with OVCAR-5 ovarian worked out at 40.2 µM; in the assay on SF-295 CNS, 3.88 µM; in the assay on SF-539 CNS it was 11.7 µM; in the assay with UO-31 renal it was 2.95 µM.
On to `O=C1Nc2c(Cl)cc(Cl)cc2/C1=N/N=C/c1ccco1`, for which the TGI with A498 renal was 57.7 µM; with CAKI-1 renal, 72.8 µM; in the assay on CCRF-CEM leukemia, above 100 µM; in the assay with HCT-116 colon it was above 100 µM; in the assay with M14 melanoma it was above 100 µM; in the assay on NCI-H460 lung, above 100 µM. For the same compound, the TGI with OVCAR-5 ovarian is above 100 µM; in the assay with SF-295 CNS, above 100 µM; with SF-539 CNS, above 100 µM; in the assay on UO-31 renal it was 55.4 µM.
As for `CC(C)(C)C1=CC(=N/N=c2\scc(-c3ccccc3)n2-c2ccccc2)C=C(C(C)(C)C)C1=O`, the TGI in the assay with A498 renal, with CAKI-1 renal, in the assay on CCRF-CEM leukemia, in the assay on HCT-116 colon, in the assay with M14 melanoma and in the assay with NCI-H460 lung was above 100 µM in each case. In addition, the TGI in the assay on OVCAR-5 ovarian, in the assay on SF-295 CNS, with SF-539 CNS and in the assay with UO-31 renal was above 100 µM in each case.
On to `O=C(C[n+]1ccccc1)N/N=C(/CCC(=O)N(Cc1ccccc1)Cc1ccccc1)CC(=O)c1ccccc1`, for which the concentration for total growth inhibition (TGI) with A498 renal, in the assay with CAKI-1 renal, with CCRF-CEM leukemia, with HCT-116 colon, with M14 melanoma and in the assay with NCI-H460 lung was above 100 µM throughout. Also, the TGI in the assay with OVCAR-5 ovarian, with SF-295 CNS, in the assay with SF-539 CNS and with UO-31 renal was above 100 µM each time.
Turning to `COc1cc(-n2ccnc2-c2ccc3ccccc3c2)cc(OC)c1OC`, the GI50 in the assay on A498 renal is 0.0451 µM; in the assay on CAKI-1 renal, 0.0853 µM; in the assay with CCRF-CEM leukemia, 0.136 µM; in the assay on HCT-116 colon, 0.0382 µM; in the assay with M14 melanoma, 0.0376 µM; with NCI-H460 lung, 0.0373 µM. Further, the GI50 in the assay with OVCAR-5 ovarian was 0.408 µM; in the assay with SF-295 CNS it was 0.0363 µM; in the assay on SF-539 CNS, 0.099 µM; in the assay with UO-31 renal, 0.28 µM. The TGI with A498 renal was 1.42 µM; in the assay with CAKI-1 renal it was above 75.3 µM; with CCRF-CEM leukemia, above 100 µM; in the assay with HCT-116 colon, 15.3 µM; in the assay on M14 melanoma it was 1.02 µM; in the assay on NCI-H460 lung it was 14.7 µM. For the same compound, the TGI with OVCAR-5 ovarian was above 93.6 µM; in the assay with SF-295 CNS, 42.5 µM; in the assay with SF-539 CNS, 2.06 µM; with UO-31 renal, 35 µM.
With `Oc1ccccc1-c1nn(CNc2ccc(Cl)cc2)c(=S)o1`, the GI50 was above 100 µM in the assay with A498 renal; 3.71 µM in the assay on CAKI-1 renal; above 100 µM in the assay with CCRF-CEM leukemia; 18.2 µM in the assay with HCT-116 colon; 28.3 µM with M14 melanoma; 25.7 µM in the assay on NCI-H460 lung. Also, the GI50 with OVCAR-5 ovarian is above 100 µM; in the assay with SF-295 CNS, above 100 µM; with SF-539 CNS it was 23.8 µM; with UO-31 renal, above 100 µM. Also, the TGI is above 100 µM with A498 renal; above 100 µM with CAKI-1 renal; above 100 µM in the assay on CCRF-CEM leukemia; 51.4 µM in the assay on HCT-116 colon; above 100 µM in the assay with M14 melanoma; above 100 µM in the assay on NCI-H460 lung. For the same compound, the TGI in the assay with OVCAR-5 ovarian, in the assay with SF-295 CNS, in the assay with SF-539 CNS and with UO-31 renal was above 100 µM each time.
